This is an account of results in patent publication EP4122499A1, “FIBROBLAST ACTIVATION PROTEIN INHIBITORS AND USE THEREOF” (3B Pharmaceuticals GmbH, priority 2021, dated 2023).

The target in test [1] is T1, Human recombinant FAP (Homo sapiens, UniProt Q12884).
T1 sequence (Q12884 1-760): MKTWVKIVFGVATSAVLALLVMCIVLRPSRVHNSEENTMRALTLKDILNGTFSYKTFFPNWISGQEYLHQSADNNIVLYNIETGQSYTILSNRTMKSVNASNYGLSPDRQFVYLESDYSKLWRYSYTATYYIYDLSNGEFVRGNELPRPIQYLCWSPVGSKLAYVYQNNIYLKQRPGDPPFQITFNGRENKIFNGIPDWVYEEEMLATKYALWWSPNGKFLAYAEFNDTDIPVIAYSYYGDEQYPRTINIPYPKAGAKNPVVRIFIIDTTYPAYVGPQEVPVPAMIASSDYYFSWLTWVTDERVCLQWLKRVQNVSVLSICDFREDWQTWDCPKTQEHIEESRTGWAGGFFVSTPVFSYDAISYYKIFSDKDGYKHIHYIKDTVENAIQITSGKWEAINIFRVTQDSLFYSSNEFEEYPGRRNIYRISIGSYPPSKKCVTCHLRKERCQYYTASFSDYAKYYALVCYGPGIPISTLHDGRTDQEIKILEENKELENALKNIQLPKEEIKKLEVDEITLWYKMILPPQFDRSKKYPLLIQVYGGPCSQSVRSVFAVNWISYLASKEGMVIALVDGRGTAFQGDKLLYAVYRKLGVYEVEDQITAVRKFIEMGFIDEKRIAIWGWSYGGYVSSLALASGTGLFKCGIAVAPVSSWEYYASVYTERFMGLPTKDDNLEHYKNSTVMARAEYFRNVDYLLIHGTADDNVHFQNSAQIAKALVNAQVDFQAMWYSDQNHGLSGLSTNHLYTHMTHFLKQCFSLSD
Nature of the test: Surface plasmon resonance assay (Biacore T200, single cycle kinetics). The format is binding. The conditions noted are these: SPR, 25°C; for pKD (Biacore) / Kd: 1:1 Langmuir binding model; for HL [min] (Biacore): half-life; for Kd: read-out: pKD (Biacore) (converted). The procedure, abridged: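 Human recombinant FAP (20 µg/mL) was captured on anti-FAP antibody immobilized on a CM5 chip, and compounds were run in single-cycle kinetics at 25 °C in HBST with 0.1% DMSO, starting from 500 nM. Sensorgrams were corrected against a reference flow cell and for baseline drift. kon, koff, KD and t1/2 came from a 1:1 Langmuir fit, with pKD = −log KD.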
Background: In SPR one partner is held on a chip, and binding of the other changes the refractive index at the surface.

For test [2], the target named is T1, Human recombinant FAP. Nature of the test: FRET-based FAP protease activity assay (human). The format is biochemical. Set-up: purchased R&D systems 3715-SE. The conditions noted are these: FRET-peptide substrate, 37°C; for IC50: read-out: pIC50 (Activity) (converted). Here is the method:
In order to determine the inhibitory activity a FRET-based FAP protease activity assay was established.
25 µL of a 30 µM substrate solution, diluted in assay buffer, was added. […] Four parameter logistic (4PL) curve fitting and pIC50 calculations were performed using ActivityBase software (IDBS).

As to `O=C(O)CN1CCN(CC(=O)O)CCN(CC(=O)N2CCN(CCNC(=O)c3ccc(-c4ccc5nccc(C(=O)NCC(=O)N6C[C@@H](F)C[C@H]6C(=O)c6nc7ccccc7o6)c5c4)cc3)CC2)CCN(CC(=O)O)CC1` [drawing 360], at Human recombinant FAP [1], the “pKD (Biacore)” value is recorded as 9 and the “HL [min] (Biacore)” value was 4.8 min. In addition, the “pIC50 (Activity)” value at Human recombinant FAP [2] amounted to 8.5.
The matching figures for `O=C(O)CN1CCN(CC(=O)O)CCN(CC(=O)N2CCN(CCNC(=O)c3cccc(-c4ccc5c(C(=O)NCC(=O)N6CCC[C@H]6C(=O)c6nc7ccccc7o6)ccnc5c4)c3)CC2)CCN(CC(=O)O)CC1` [drawing 352]: more than 11, more than 500 min and 8.7.
Consider `CC(C)(C)c1nnc(C(=O)[C@@H]2CCCN2C(=O)CNC(=O)c2ccnc3ccccc23)o1`, for which, on Human recombinant FAP [1], the Kd is 2510 pM and the “HL [min] (Biacore)” value came out at 0.4 min. For the same compound, on Human recombinant FAP [2], the IC50 is 3980 pM.
In the case of `O=C(O)CN1CCN(CC(=O)O)CCN(CC(=O)N2CCN(CCNC(=O)c3cccc(-c4ccc5nccc(C(=O)NCC(=O)N6CCC[C@H]6C(=O)c6nc7ccccc7o6)c5c4)c3)CC2)CCN(CC(=O)O)CC1` [drawing 353], at Human recombinant FAP [1], the “pKD (Biacore)” value turned out to be 10.1 and the “HL [min] (Biacore)” value turned out to be 289.5 min. The “pIC50 (Activity)” value on Human recombinant FAP [2] came to 8.6.
With `N#C[C@@H]1CC(F)(F)CN1C(=O)CNC(=O)c1ccnc2ccc(-c3ccc(S(=O)(=O)CCCNC(=O)CN4CCN(CC(=O)O)CCN(CC(=O)O)CCN(CC(=O)O)CC4)cc3)cc12`, on Human recombinant FAP [1], the “pKD (Biacore)” value was more than 11 and the “HL [min] (Biacore)” value is on record as more than 500 min. Moreover, on Human recombinant FAP [2], the “pIC50 (Activity)” value amounted to 9.1.
With `O=C(O)CN1CCN(CC(=O)O)CCN(CC(=O)N2CCN(CCCOc3ccc4nccc(C(=O)NCC(=O)N5CC(F)(F)C[C@H]5C(=O)c5nc6ccccc6o5)c4c3)CC2)CCN(CC(=O)O)CC1`, on Human recombinant FAP [1], the “pKD (Biacore)” value was determined as 8.6 and the “HL [min] (Biacore)” value is recorded as 57 min. The “pIC50 (Activity)” value on Human recombinant FAP [2] is on record as 8.6.
Regarding `O=C(NCC(=O)N1CCC[C@H]1C(=O)c1nc2ccccc2s1)c1ccnc2ccccc12`, on Human recombinant FAP [1], the Kd was 3980 pM and the “HL [min] (Biacore)” value was 0.3 min. In addition, on Human recombinant FAP [2], the IC50 is 39800 pM.
As to `CS(=O)(=O)c1ccc(-c2ccc3c(C(=O)NCC(=O)N4CCC[C@H]4C#N)ccnc3c2)cc1` [drawing 290], at Human recombinant FAP [1], the Kd was 631 pM and the “HL [min] (Biacore)” value is reported as 4 min. Also, on Human recombinant FAP [2], the IC50 is 1580 pM.
For `O=C(O)CN1CCN(CC(=O)O)CCN(CC(=O)N2CCN(CCCOc3ccc4nccc(C(=O)NCC(=O)N5CCC[C@H]5C(=O)c5nc6ccccc6o5)c4c3)CC2)CCN(CC(=O)O)CC1` [drawing 357], at Human recombinant FAP [1], the “pKD (Biacore)” value is recorded as more than 11 and the “HL [min] (Biacore)” value is more than 500 min. On Human recombinant FAP [2], the “pIC50 (Activity)” value came out at 8.9.
With `O=C(O)CN1CCN(CC(=O)O)CCN(CC(=O)N2CCN(CCCOc3ccc4nccc(C(=O)NCC(=O)N5C[C@@H](F)C[C@H]5C(=O)c5nc6ccccc6o5)c4c3)CC2)CCN(CC(=O)O)CC1` [drawing 358], on Human recombinant FAP [1], the “pKD (Biacore)” value was more than 11 and the “HL [min] (Biacore)” value is more than 500 min. The “pIC50 (Activity)” value on Human recombinant FAP [2] came to 9.
`CS(=O)(=O)c1cccc(-c2ccc3nccc(C(=O)NCC(=O)N4CC(F)(F)C[C@H]4C#N)c3c2)c1` [drawing 288]: on Human recombinant FAP [1], the Kd was 79.4 pM and the “HL [min] (Biacore)” value is reported as 29 min. On Human recombinant FAP [2], the IC50 was 631 pM.
As to `CS(=O)(=O)c1cccc(-c2ccc3nccc(C(=O)NCC(=O)N4CCC[C@H]4C#N)c3c2)c1`, at Human recombinant FAP [1], the Kd is 398 pM and the “HL [min] (Biacore)” value amounted to 2.5 min. The IC50 on Human recombinant FAP [2] is 1000 pM.
For the compound `N#C[C@@H]1CC(F)(F)CN1C(=O)CNC(=O)c1ccnc2ccc(-c3ccc(C(=O)NCCCNC(=O)CN4CCN(CC(=O)O)CCN(CC(=O)O)CCN(CC(=O)O)CC4)cc3)cc12`, at Human recombinant FAP [1], the “pKD (Biacore)” value is listed as more than 11 and the “HL [min] (Biacore)” value was 110 min. Besides, the “pIC50 (Activity)” value at Human recombinant FAP [2] was 9.2.
`N#C[C@@H]1CC(F)(F)CN1C(=O)CNC(=O)c1ccnc2ccc(-c3ccc(C(=O)NCCN4CCN(C(=O)CN5CCN(CC(=O)O)CCN(CC(=O)O)CCN(CC(=O)O)CC5)CC4)cc3)cc12`: on Human recombinant FAP [1], the “pKD (Biacore)” value is given as more than 11 and the “HL [min] (Biacore)” value was more than 500 min. At Human recombinant FAP [2], the “pIC50 (Activity)” value came out at 9.1.
For `CS(=O)(=O)c1cccc(-c2ccc3c(C(=O)NCC(=O)N4CCC[C@H]4C#N)ccnc3c2)c1`, on Human recombinant FAP [1], the Kd is 501 pM and the “HL [min] (Biacore)” value is on record as 5.7 min. For the same compound, on Human recombinant FAP [2], the IC50 is 2000 pM.
Consider `CS(=O)(=O)c1cccc(-c2ccc3c(C(=O)NCC(=O)N4CC(F)(F)C[C@H]4C#N)ccnc3c2)c1` [drawing 289], for which, on Human recombinant FAP [1], the Kd was 79.4 pM and the “HL [min] (Biacore)” value is recorded as 29.5 min. In addition, the IC50 on Human recombinant FAP [2] is 794 pM.
On the same counts, the results for `O=C(NCC(=O)N1CCC[C@H]1C(=O)c1ncco1)c1ccnc2ccccc12` [drawing 297] are 2510 pM, 0.6 min and 6310 pM.
On the same counts, the results for `O=C(NCC(=O)N1CCC[C@H]1C(=O)c1nc2ccccc2o1)c1ccnc2ccccc12` are 501 pM, 3.7 min and 1580 pM.
Consider `CS(=O)(=O)c1ccc(-c2ccc3nccc(C(=O)NCC(=O)N4CC(F)(F)C[C@H]4C#N)c3c2)cc1`, for which, on Human recombinant FAP [1], the Kd was 25.1 pM and the “HL [min] (Biacore)” value came out at 125 min. Moreover, the IC50 at Human recombinant FAP [2] was 631 pM.
Turning to `O=C(O)CN1CCN(CC(=O)O)CCN(CC(=O)N2CCN(CCNC(=O)c3ccc(-c4ccc5nccc(C(=O)NCC(=O)N6CCC[C@H]6C(=O)c6nc7ccccc7o6)c5c4)cc3)CC2)CCN(CC(=O)O)CC1` [drawing 354], at Human recombinant FAP [1], the “pKD (Biacore)” value was found to be 9.1 and the “HL [min] (Biacore)” value was 10.5 min. Moreover, the “pIC50 (Activity)” value on Human recombinant FAP [2] was 8.4.
On to `CS(=O)(=O)c1ccc(-c2ccc3nccc(C(=O)NCC(=O)N4CCC[C@H]4C#N)c3c2)cc1`, for which, on Human recombinant FAP [1], the Kd is 158 pM and the “HL [min] (Biacore)” value was found to be 12 min. Also, the IC50 on Human recombinant FAP [2] is 631 pM.
For the compound `O=C(O)CN1CCN(CC(=O)O)CCN(CC(=O)N2CCN(CCNC(=O)c3ccc(-c4ccc5nccc(C(=O)NCC(=O)N6CCC[C@H]6C(=O)c6nc7ccccc7o6)c5c4)cn3)CC2)CCN(CC(=O)O)CC1` [drawing 361], on Human recombinant FAP [1], the “pKD (Biacore)” value is recorded as 8.7 and the “HL [min] (Biacore)” value is on record as 4.1 min. For the same compound, the “pIC50 (Activity)” value at Human recombinant FAP [2] stood at 8.4.
In the case of `N#C[C@@H]1CCCN1C(=O)CNC(=O)c1ccnc2ccc(-c3ccc(C(=O)NCCCNC(=O)CN4CCN(CC(=O)O)CCN(CC(=O)O)CCN(CC(=O)O)CC4)cc3)cc12`, on Human recombinant FAP [1], the “pKD (Biacore)” value was 10.2 and the “HL [min] (Biacore)” value stood at 160 min. On Human recombinant FAP [2], the “pIC50 (Activity)” value is reported as 9.
For the compound `O=C(O)CN1CCN(CC(=O)O)CCN(CC(=O)NCCCNC(=O)c2ccc(-c3ccc4nccc(C(=O)NCC(=O)N5CCC[C@H]5C(=O)c5nc6ccccc6o5)c4c3)cc2)CCN(CC(=O)O)CC1`, on Human recombinant FAP [1], the “pKD (Biacore)” value was 10.3 and the “HL [min] (Biacore)” value was found to be 259.3 min. Also, at Human recombinant FAP [2], the “pIC50 (Activity)” value is 8.8.
With `N#C[C@@H]1CC(F)(F)CN1C(=O)CNC(=O)c1ccnc2ccc(-c3ccc(C(=O)NCCCNC(=O)CN4CCN(CC(=O)O)CCN(CC(=O)O)CCN(CC(=O)O)CC4)nc3)cc12`, on Human recombinant FAP [1], the “pKD (Biacore)” value is more than 11 and the “HL [min] (Biacore)” value is recorded as more than 500 min. Further, the “pIC50 (Activity)” value on Human recombinant FAP [2] worked out at 9.1.
On the same counts, the results for `O=C(O)CN1CCN(CC(=O)O)CCN(CC(=O)NCCCNC(=O)c2ccc(-c3ccc4nccc(C(=O)NCC(=O)N5CCC[C@H]5B(O)O)c4c3)cc2)CCN(CC(=O)O)CC1` are more than 11, more than 500 min and 8.8.
Consider `O=C(NCC(=O)N1CCC[C@H]1C(=O)c1nccs1)c1ccnc2ccccc12`, for which, on Human recombinant FAP [1], the Kd was 12600 pM and the “HL [min] (Biacore)” value is recorded as 0.3 min. Also, the IC50 on Human recombinant FAP [2] was 50100 pM.
With `O=C(O)CN1CCN(CC(=O)O)CCN(CC(=O)N2CCN(CCNC(=O)c3ccc(-c4ccc5c(C(=O)NCC(=O)N6CCC[C@H]6C(=O)c6nc7ccccc7o6)ccnc5c4)cc3)CC2)CCN(CC(=O)O)CC1` [drawing 355], on Human recombinant FAP [1], the “pKD (Biacore)” value was more than 11 and the “HL [min] (Biacore)” value was more than 500 min. On Human recombinant FAP [2], the “pIC50 (Activity)” value was found to be 8.7.
For `N#C[C@@H]1CC(F)(F)CN1C(=O)CNC(=O)c1cc[n+]([O-])c2ccc(OCCCN3CCN(C(=O)CN4CCN(CC(=O)O)CCN(CC(=O)O)CCN(CC(=O)O)CC4)CC3)cc12`, at Human recombinant FAP [1], the “pKD (Biacore)” value was 9.8 and the “HL [min] (Biacore)” value is recorded as 19 min. The “pIC50 (Activity)” value at Human recombinant FAP [2] was 9.
